Where a name gives a salt, the structure may show the parent alone. Read-outs that look alike come from different tables or passages of the source.
Assays:
[1] = biological target: T1, hNav1.7 (Homo sapiens, UniProt Q15858); assay: Tritiated compound binding (LBA) to membranes from cells expressing hNav1.7 and the β1 subunit, competitive binding; conditions: competitive binding vs 100 pM [3H]compound, 18 h, room temperature, membranes with hNav1.7 and β1 subunit
T1 construct: expressed in transfected cells
T1 sequence (Q15858 1-1977 isoform Q15858-3): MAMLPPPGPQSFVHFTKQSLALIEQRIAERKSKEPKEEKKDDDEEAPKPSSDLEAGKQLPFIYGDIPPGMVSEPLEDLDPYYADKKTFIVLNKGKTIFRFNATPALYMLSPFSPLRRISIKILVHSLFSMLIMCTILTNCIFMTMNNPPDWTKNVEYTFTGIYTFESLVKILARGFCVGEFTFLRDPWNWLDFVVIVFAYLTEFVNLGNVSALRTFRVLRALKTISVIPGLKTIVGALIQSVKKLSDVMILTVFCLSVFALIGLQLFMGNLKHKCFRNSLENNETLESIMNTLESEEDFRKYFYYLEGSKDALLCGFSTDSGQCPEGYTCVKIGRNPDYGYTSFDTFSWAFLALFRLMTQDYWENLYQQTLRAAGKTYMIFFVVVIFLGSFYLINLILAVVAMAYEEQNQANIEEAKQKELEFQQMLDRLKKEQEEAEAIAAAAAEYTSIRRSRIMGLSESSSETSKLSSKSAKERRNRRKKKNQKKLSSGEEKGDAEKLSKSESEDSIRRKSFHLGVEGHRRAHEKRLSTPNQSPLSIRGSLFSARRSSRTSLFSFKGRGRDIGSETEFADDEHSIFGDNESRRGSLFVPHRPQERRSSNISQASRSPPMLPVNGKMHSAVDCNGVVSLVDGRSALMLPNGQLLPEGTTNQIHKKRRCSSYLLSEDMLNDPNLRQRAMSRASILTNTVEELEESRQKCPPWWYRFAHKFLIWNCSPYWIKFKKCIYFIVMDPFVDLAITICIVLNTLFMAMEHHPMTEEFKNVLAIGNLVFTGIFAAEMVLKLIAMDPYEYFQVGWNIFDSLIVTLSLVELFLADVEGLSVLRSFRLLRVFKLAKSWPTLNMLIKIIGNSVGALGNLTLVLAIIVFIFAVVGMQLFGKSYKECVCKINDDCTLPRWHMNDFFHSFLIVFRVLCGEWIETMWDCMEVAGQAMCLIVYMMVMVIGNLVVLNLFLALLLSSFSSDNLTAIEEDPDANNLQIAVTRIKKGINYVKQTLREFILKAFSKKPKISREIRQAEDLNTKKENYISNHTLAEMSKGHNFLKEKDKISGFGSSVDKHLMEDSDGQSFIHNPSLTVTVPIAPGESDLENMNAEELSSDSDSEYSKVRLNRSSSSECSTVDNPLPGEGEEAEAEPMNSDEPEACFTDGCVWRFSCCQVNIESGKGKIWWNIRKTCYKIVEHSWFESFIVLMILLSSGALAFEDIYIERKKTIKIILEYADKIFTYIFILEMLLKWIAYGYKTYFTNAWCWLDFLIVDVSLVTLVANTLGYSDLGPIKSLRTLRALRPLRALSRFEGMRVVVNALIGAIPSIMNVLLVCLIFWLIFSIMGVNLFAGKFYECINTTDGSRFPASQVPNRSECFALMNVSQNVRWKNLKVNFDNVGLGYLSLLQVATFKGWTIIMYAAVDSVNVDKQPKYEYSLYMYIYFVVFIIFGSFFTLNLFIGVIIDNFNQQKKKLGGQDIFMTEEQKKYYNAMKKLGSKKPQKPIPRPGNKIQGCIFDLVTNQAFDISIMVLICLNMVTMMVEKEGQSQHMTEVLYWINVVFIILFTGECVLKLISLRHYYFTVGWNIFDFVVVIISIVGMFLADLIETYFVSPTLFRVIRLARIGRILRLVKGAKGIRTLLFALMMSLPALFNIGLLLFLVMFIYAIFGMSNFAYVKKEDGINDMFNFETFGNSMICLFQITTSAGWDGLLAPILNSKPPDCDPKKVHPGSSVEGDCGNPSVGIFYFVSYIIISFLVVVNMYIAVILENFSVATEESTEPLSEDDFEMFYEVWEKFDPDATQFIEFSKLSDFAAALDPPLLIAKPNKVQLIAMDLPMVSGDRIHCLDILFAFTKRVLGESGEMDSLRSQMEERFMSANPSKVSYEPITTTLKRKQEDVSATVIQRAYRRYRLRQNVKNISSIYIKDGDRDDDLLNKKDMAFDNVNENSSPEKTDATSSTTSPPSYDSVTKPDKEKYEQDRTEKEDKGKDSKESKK
T1 sequence (Q07699 19-218 partner): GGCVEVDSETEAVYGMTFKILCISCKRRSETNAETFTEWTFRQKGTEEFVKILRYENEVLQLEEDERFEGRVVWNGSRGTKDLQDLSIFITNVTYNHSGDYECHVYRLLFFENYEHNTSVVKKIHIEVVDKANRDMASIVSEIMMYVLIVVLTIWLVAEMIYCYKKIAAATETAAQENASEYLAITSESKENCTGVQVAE
Summary of the method: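 Competitive displacement of 100 pM [3H]compound (tritiated methyl analogue of formula (I)) from hNav1.7/β1 membranes, 18 h at room temperature in NaCl/Tris pH 7.4 buffer containing 0.01% BSA. 1 μM unlabeled compound set non-specific binding. Bound label quantified by scintillation after filtration; 4-parameter fit gave IC50.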

[2] = biological target: T2, human NaV1.7 (Homo sapiens, UniProt Q15858); assay: Patch voltage clamp electrophysiology assay (EP), NaV1.7; assay type: cell-based; conditions: HEK-293 cells stably expressing NaV1.7 with β1 subunit; whole-cell patch clamp, membrane potential −60 mV (inactivated state)
T2 construct: permanently transfected with an expression vector containing the full-length cDNA coding for the desired human sodium channel α-subunit; expressed in transfected cells; host or cells: HEK-293
T2 sequence (Q15858 1-1977 isoform Q15858-3): as the sequence (Q15858 1-1977 isoform Q15858-3) above
T2 sequence (Q07699 19-218 partner): as the sequence (Q07699 19-218 partner) above
Protocol: (§1) The following patch voltage clamp electrophysiology studies were performed on representative compounds of the invention using human embryonic kidney cells (HEK), permanently transfected with an expression vector containing the full-length cDNA coding for the desired human sodium channel α-subunit, grown in culture media containing 10% FBS, 1% PSG, and 0.5 mg/mL G418 at 37° C. with 5% CO2. […] NaV1.7 and NaV1.5 cDNAs (NM_002977 and AC137587; SCN5A, respectively) were stably expressed in HEK-293 cells. The β1 subunit was coexpressed in both the NaV1.7 and NaV1.5 cell lines.
(§2) Sodium currents were measured using the patch clamp technique in the whole-cell configuration using either a PatchXpress automated voltage clamp or manually using an Axopatch 200B (Axon Instruments) or Model 2400 (A-M systems) amplifier. The manual voltage clamp protocol was as follows: Borosilicate glass micropipettes were fire-polished to a tip diameter yielding a resistance of 2-4 Mohms in the working solutions. The pipette was filled with a solution comprised of: 5 mM NaCl, 10 mM CsCl, 120 mM CsF, 0.1 mM CaCl2, 2 mM MgCl2, 10 mM HEPES, 10 mM EGTA; and adjusted to pH 7.2 with CsOH. The external solution had the following composition: 140 mM NaCl, 5 mM KCl, 2 mM CaCl2, 1 mM MgCl2, 10 mM HEPES; and adjusted to pH 7.4 with NaOH. In some studies, the external sodium was reduced by equimolar replacement with choline. Osmolarity in the CsF internal and NaCl external solutions was adjusted to 300 mOsm/kg and 310 mOsm/kg with glucose, respectively. All recordings were performed at ambient temperature in a bath chamber with a volume of 150 μL. Control sodium currents were measured in 0.5% DMSO. Controls and representative compounds of the invention were applied to the recording chamber through a 4-pinch or 8-pinch valve bath perfusion system manufactured by ALA Scientific Instruments.
(§3) Series resistance compensation was applied (60-80%). […] All statistics in this study are given as mean±SD.
(§4) The membrane potential was maintained at a voltage where inactivation of the channel is complete (which was −60 mV for both NaV1.7 and NaV1.5). The voltage is then stepped back to a very negative (Vhold=[…]) voltage for 20 ms and then a test pulse is applied to quantify the compound block. […] The percent decrease in sodium current following wash-on of compound was taken as the percent block of sodium channels.

[3] = biological target: T3, NaV1.5 (Homo sapiens, UniProt Q14524); assay: Patch voltage clamp electrophysiology assay (EP), NaV1.5; assay type: cell-based; conditions: HEK-293 cells stably expressing NaV1.5 with β1 subunit, whole-cell patch clamp, membrane potential −60 mV (inactivated state)
T3 construct: permanently transfected with an expression vector containing the full-length cDNA coding for the desired human sodium channel α-subunit; expressed in transfected cells; host or cells: HEK-293
T3 sequence (Q14524 whole entry): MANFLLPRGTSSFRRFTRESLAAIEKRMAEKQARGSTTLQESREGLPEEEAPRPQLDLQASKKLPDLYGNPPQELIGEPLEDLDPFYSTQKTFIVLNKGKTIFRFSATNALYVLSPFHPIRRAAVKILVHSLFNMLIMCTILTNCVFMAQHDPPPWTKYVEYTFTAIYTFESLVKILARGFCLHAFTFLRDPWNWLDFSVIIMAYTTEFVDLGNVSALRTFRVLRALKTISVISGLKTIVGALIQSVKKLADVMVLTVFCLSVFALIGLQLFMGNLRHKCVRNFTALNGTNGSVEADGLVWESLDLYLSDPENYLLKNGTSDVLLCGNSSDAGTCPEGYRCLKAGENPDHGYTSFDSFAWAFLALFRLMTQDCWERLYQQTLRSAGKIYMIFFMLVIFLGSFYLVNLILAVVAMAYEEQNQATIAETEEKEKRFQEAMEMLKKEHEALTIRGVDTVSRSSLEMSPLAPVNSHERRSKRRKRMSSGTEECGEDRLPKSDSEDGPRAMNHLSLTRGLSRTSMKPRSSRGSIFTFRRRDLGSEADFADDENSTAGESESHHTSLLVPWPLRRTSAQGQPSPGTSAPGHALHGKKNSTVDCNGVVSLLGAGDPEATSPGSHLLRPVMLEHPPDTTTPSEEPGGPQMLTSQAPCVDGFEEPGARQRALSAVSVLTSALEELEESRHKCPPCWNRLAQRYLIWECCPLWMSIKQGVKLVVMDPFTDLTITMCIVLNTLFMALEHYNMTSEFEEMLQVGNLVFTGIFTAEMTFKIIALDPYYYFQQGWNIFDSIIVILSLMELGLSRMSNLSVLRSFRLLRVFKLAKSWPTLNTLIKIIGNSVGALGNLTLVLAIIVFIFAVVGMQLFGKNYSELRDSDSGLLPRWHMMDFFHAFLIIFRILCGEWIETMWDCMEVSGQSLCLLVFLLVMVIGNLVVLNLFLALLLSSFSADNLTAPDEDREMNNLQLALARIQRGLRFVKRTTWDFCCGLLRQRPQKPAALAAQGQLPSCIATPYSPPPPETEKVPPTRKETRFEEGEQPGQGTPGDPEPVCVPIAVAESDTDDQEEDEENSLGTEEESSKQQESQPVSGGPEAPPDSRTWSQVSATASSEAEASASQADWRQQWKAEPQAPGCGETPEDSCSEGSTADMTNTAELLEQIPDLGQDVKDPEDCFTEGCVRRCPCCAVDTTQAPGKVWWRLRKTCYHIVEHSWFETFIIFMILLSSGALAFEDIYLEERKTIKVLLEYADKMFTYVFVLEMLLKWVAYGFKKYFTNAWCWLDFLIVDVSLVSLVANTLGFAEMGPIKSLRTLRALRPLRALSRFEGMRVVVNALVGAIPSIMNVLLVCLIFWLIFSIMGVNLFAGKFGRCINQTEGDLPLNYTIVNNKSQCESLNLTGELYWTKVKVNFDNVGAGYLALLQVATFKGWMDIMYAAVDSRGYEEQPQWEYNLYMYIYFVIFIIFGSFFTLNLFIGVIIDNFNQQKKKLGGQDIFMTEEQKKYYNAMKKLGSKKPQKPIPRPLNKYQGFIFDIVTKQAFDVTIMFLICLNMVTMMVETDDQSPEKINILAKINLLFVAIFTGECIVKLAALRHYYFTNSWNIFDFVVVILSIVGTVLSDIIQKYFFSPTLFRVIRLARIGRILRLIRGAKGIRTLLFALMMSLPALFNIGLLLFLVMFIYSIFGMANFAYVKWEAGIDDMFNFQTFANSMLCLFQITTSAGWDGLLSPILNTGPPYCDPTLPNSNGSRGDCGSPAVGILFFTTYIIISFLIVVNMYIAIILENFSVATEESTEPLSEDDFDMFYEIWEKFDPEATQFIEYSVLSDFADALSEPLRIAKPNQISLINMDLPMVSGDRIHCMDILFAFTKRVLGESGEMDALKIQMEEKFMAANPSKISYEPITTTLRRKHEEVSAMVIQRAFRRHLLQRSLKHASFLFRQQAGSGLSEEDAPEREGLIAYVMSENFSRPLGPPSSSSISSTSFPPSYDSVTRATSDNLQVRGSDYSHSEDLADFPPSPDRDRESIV
Protocol: as §1, §2, §3, §4

[4] = human, HEK-293 cells stably expressing human NaV1.5 with β1 subunit, pH 7.4

Row | IC50 [1] [nM] | IC50 [2] [nM] | Structure (SMILES) | IC50 ([3]; read-out: Nav1.5) [nM] | IC50 [3, 4] [nM]
1 | 23 | 510 | CC1(COc2cc(F)c(C(=O)N3C[C@H](F)C[C@H]3C(=O)O)cc2C2CC2)CN([C@@H](c2ccccc2)c2cc(Cl)cc(Cl)c2)C1 (single isomer, unassigned) [Example 117] | 8500 | –
2 | 30 | 810 | C[C@H]1[C@H](F)CN(C(=O)c2cc(C3CC3)c(OCC34CC5CC(CC(C5)C3)C4)cc2F)[C@@H]1C(=O)O [Example 210b, (2S,3R,4S)-1-(4-(adamantan-1-ylmethoxy)-5-cyclopropyl-2-fluorobenzoyl)-4-fluoro-3-methylpyrrolidine-2-carboxylic acid] | 17000 | –
3 | 7.6 | 610 | CC1(COc2cc(F)c(C(=O)N[C@H](C(=O)O)C3CC3)cc2C2CC2)CN([C@H](c2ccccc2)c2cc(Cl)cc(Cl)c2)C1 (single isomer, unassigned) [Example 113] | 15000 | –
4 | 870 | 3500 | N#C[C@H]1C[C@@H](C(=O)O)N(C(=O)c2cc(C3CC3)c(OCC34CC5CC(CC(C5)C3)C4)cc2F)C1 [Example 144, (2S,4S)-1-[4-(1-adamantylmethoxy)-5-cyclopropyl-2-fluoro-benzoyl]-4-cyano-pyrrolidine-2-carboxylic acid] | – | ≥ 30000
5 | 12 | 130 | C[C@H]1OCN(C(=O)c2cc(C3CC3)c(OCC3CCN(C(c4cc(Cl)cc(Cl)c4)C(F)(F)F)CC3)cc2F)[C@@H]1C(=O)O (stereo partly drawn) [Example 226, (4S,5R)-3-(5-cyclopropyl-4-((1-(1-(3,5-dichlorophenyl)-2,2,2-trifluoroethyl)-piperidin-4-yl)methoxy)-2-fluorobenzoyl)-5-methyloxazolidine-4-carboxylic acid] | 6100 | –
6 | 430 | 2100 | C[C@@H](O)[C@H](NC(=O)c1cc(C2CC2)c(OCC23CC4CC(CC(C4)C2)C3)cc1F)C(=O)O [Example 57] | 23000 | –
7 | 20 | 1700 | CC1(COc2cc(F)c(C(=O)N[C@H](C(=O)O)C3CC3)cc2C2CC2)CN([C@@H](c2ccccc2)c2cc(Cl)cc(Cl)c2)C1 (single isomer, unassigned) [Example 114] | 13000 | –
8 | 87 | 1000 | CO[C@H]1CCN(C(=O)c2cc(C3CC3)c(OCC34CC5CC(CC(C5)C3)C4)cc2F)[C@@H]1C(=O)O [Example 76, (2S,3 S)-1-(4-(adamantan-1-ylmethoxy)-5-cyclopropyl-2-fluorobenzoyl)-3-methoxypyrrolidine-2-carboxylic acid] | 17000 | –
9 | ≥ 10000 | 10000 | O=C(O)[C@@H]1C=C(C(F)(F)F)CN1C(=O)c1cc(C2CC2)c(OCC23CC4CC(CC(C4)C2)C3)cc1F [Example 203] | 19000 | –
10 | 21 | 760 | O=C(N[C@H](C(=O)O)C1CC1)c1cc(C2CC2)c(OCC2CCN([C@H](c3ccccc3)c3cc(Cl)cc(Cl)c3)CC2)cc1F (single isomer, unassigned) [Example 118] | 15000 | –
11 | 590 | 1100 | O=C(O)[C@@H]1CCCN1C(=O)c1ccc(OCC23CC4CC(CC(C4)C2)C3)c(C(F)(F)F)c1 [Example 85, (S)-1-(4-(adamantan-1-ylmethoxy)-3-(trifluoromethyl)benzoyl)-pyrrolidine-2-carboxylic acid] | 17000 | –
12 | 800 | 7100 | O=C(O)[C@@H]1CCCN1C(=O)c1cc(C2CC2)c(OC[C@@H]2CCN(C(c3ccccc3)c3ccccc3)C2)cc1F (single isomer, unassigned) [Example 139b] | 22000 | –

Further lines, the compound ahead of its results:

Row | Structure (SMILES) | IC50 [1] [nM] | IC50 [2] [nM] | IC50 ([3]; read-out: Nav1.5) [nM] | IC50 [3, 4] [nM]
13 | CC1(C)SCN(C(=O)c2cc(C3CC3)c(OCC34CC5CC(CC(C5)C3)C4)cc2F)[C@@H]1C(=O)O [Example 155, (4R)-3-[4-(1-adamantylmethoxy)-5-cyclopropyl-2-fluoro-benzoyl]-5,5-dimethyl-thiazolidine-4-carboxylic acid] | 68 | 900 | 9300 | –
14 | O=C(O)[C@@H]1C[C@@H](F)CN1C(=O)c1cc(C2CC2)c(OCC2CCN(Cc3cc(C(F)(F)F)cc(Cl)c3F)CC2)cc1F [Example 101, (2S,4R)-1-(4-((1-(3-chloro-2-fluoro-5-(trifluoromethyl)benzyl)-piperidin-4-yl)methoxy)-5-cyclopropyl-2-fluorobenzoyl)-4-fluoropyrrolidine-2-carboxylic acid] | 66 | 520 | – | ≥ 30000
15 | O=C(O)[C@@H]1CC(F)(F)CN1C(=O)c1cc(C2CC2)c(OCC23CC4CC(CC(C4)C2)C3)cc1F [Example 160, (2S)-1-[4-(1-adamantylmethoxy)-5-cyclopropyl-2-fluoro-benzoyl]-4,4-difluoro-pyrrolidine-2-carboxylic acid] | 35 | 640 | 16000 | –
16 | CC(C)COc1ncc(Oc2cc(F)c(C(=O)N3CCC[C@H]3C(=O)O)cc2C2CC2)cc1C1CC1 [Example 98, (5-cyclopropyl-4-((5-cyclopropyl-6-isobutoxypyridin-3-yl)oxy)-2-fluorobenzoyl)-L-proline trifluoroacetic acid salt and (4-((5-chloro-6-isobutoxypyridin-3-yl)oxy)-5-cyclopropyl-2-fluorobenzoyl)-L-proline trifluoroacetic acid salt] | 440 | 740 | – | ≥ 30000
17 | O=C(c1cc(C2CC2)c(OCC23CC4CC(CC(C4)C2)C3)cc1F)N1CCC2CC21C(=O)O (stereo not drawn) [Example 212, 2-(4-((Adamantan-1-yl)methoxy)-5-cyclopropyl-2-fluorobenzoyl)-2-azabicyclo[3.1.0]hexane-1 carboxylicacid] | 290 | 3500 | 17000 | –
18 | O=C(O)[C@@H]1C[C@@H](F)CN1C(=O)c1cc(C2CC2)c(OCC2CCN(Cc3ccc(Cl)c(Cl)c3)CC2)cc1F [Example 175, (2S,4R)-1-(5-cyclopropyl-4-((1-(3,4-dichlorobenzyl)piperidin-4-yl)methoxy)-2-fluorobenzoyl)-4-fluoropyrrolidine-2-carboxylic acid] | 110 | 1200 | – | ≥ 30000
19 | O=C(O)[C@@H]1[C@@H]2C[C@@H]2CN1C(=O)c1cc(C2CC2)c(OCC23CC4CC(CC(C4)C2)C3)cc1F (racemic) [Example 61, racemate-(1R, 3S, 5R)-2-(4-((adamantan-1-yl)methoxy)-5-cyclopropyl-2-fluorobenzoyl)-2-azabicyclo[3.1.0]hexane-3-carboxylic acid] | 970 | 2700 | 12000 | –
20 | C[C@@H](c1cc(Cl)cc(Cl)c1)N1CCC(C#N)(COc2cc(F)c(C(=O)N3C[C@H](F)C[C@H]3C(=O)O)cc2C2CC2)CC1 (single isomer, unassigned) [Example 126b] | 100 | 1400 | 10000 | –
21 | O=C(O)[C@@H]1CCCN1C(=O)c1cc(C2CC2)c(CN2CC(Oc3cc(Cl)cc(Cl)c3)C2)cc1F [Example 122, (5-cyclopropyl-4-((3-(3,5-dichlorophenoxy)azetidin-1-yl)methyl)-2-fluorobenzoyl)-L-proline] | 430 | 2000 | – | ≥ 30000
22 | O=C(O)C1=CCCN1C(=O)c1cc(C2CC2)c(OCC23CC4CC(CC(C4)C2)C3)cc1F [Example 167, 1-[4-(1-adamantylmethoxy)-5-cyclopropyl-2-fluoro-benzoyl]-2,3-dihydropyrrole-5-carboxylic acid] | 190 | 660 | 28000 | –

Source: US10125098B2, “Therapeutic compounds and methods of use thereof” (GENENTECH, INC., priority 2014, dated 2018)
